Counter-ions that a name gives are not always drawn.
Assays:
[1] = biological target: Human recombinant SSAO/VAP-1 (Homo sapiens (Human), UniProt Q16853); experiment: Determination of inhibitory activity of human recombinant SSAO/VAP-1 (Amplex Red, benzylamine); format: biochemical; details: human recombinant SSAO/VAP-1, 30 min preincubation at room temperature; read-out: SSAO/VAP-1(Human recombinant protein) IC50/nM
Protocol: 1. Determination of Inhibitory Activity of Human Recombinant SSAO/VAP-1
Test purpose: The following methods can be used to determine the inhibitory activity of the compounds described in the examples of the invention for human recombinant SSAO/VAP-1.
Human recombinant SSAO/VAP-1 (VAP-1, human) purchased from Sigma, Cat. No. SRP6241;
The test compound was dissolved in DMSO and diluted to 10 concentrations in 4-fold serial dilution. In 384 well plates, 25 μL of human recombinant SSAO/VAP-1 (1.6 μg/ml) was added to each well. 100 nL of test compounds with different concentrations were added to each well containing human recombinant SSAO/VAP-1 and incubated at room temperature for 30 min. After 30 min incubation, 25 μl of Amplex® red monoamine oxidase assay kit (containing a reaction mixture of 200 μm Amplex Red reagent, 1 U/ml HRP and 1 mm benzylamine hydrochloride) was added to the corresponding well, and incubated at room temperature and dark for 60 min. After 60 min, the relative fluorescence unit (RFU) was read by using PerkinElmer's Envision at 530-560 nm excitation and 590 nm emission. The curve was drawn by using the graph pad prism 5 software, and the IC50 value was calculated. The results were shown in table 1, wherein the compound listed in table 1 is the compound in the preparation examples with the same compound number: […]

[2] = biological target: rat adipose tissue homogenate SSAO/VAP-1 (Rattus norvegicus (Rat), UniProt O08590); experiment: Determination of inhibitory activity of rat adipose tissue homogenate SSAO/VAP-1; format: biochemical, Sprague Dawley rats; details: rat abdominal adipose tissue homogenate, pargyline pretreated, 37° C.
Protocol: 2. Determination of Inhibitory Activity of Rat Adipose Tissue Homogenate SSAO/VAP-1
Test purpose: The following methods can be used to determine the inhibitory activity of the compounds of the invention for rat adipose tissue homogenate SSAO/VAP-1.
The abdominal fat removed from Sprague Dawley rats was a tissue rich in SSAO/VAP-1. 5 mL Of HES buffer per gram of rat abdominal adipose tissue (20 mM Sodium N-piperazine-N-ethanesulfonate, 1 mm EDTA, 250 mM sucrose, 1×PMSF and 100 mM (3-glycerol phosphate disodium salt hydrate, pH 7.4) was added for homogenizing. The fat tissue was homogenized for 3 min by using Bertin precellys 24 multi-functional sample homogenizer of Bertin technologies, and the fat tissue homogenate was centrifuged for 10 min at 4° C. and 20000 g, and the middle transparent supernatant was taken. The supernatant was incubated with 0.5 mm Pargyline hydrochloride dissolved in HES buffer at 37° C. for 30 min. After 30 min incubation, 25 μl of fat tissue supernatant was added to the standard 96 well plate. The test compound was dissolved in DMSO and diluted to 6 concentrations. 25 μL Of the test compounds with different concentrations was added to each well containing the supernatant of fat tissue and incubated at 37° C. for 30 min. After incubation, 50 μL of the reaction mixture containing 80 μM benzylamine hydrochloride (containing 100 μM Amplex® red and 0.2 U/mL HRP, Amplex® Red Hydrogen peroxideperoxidase assay kit) was added to the corresponding wells and incubated at 37° C. for 30 min. After 30 min, the relative fluorescence unit (RFU) was read by using PHERAstar FSX enzyme marker of BMG LABTECH at 540 nm excitation and 580 nm emission. The curve was drawn by using the graph pad prism 5 software, and the IC50 value was calculated. The results were shown in table 2, wherein the compound listed in table 2 is the compound in the preparation examples with the same compound number: Table 2: inhibitory activity of the compound of examples of the invention for SSAO/VAP-1 of fat tissue homogenate

[3] = biological target: human recombinant DAO (Homo sapiens (Human), UniProt P19801); experiment: Determination of selective inhibitory for DAO (diamine oxidase); format: biochemical; details: human recombinant DAO, 1,4-diaminobutane substrate
Protocol: 3. Determination of Selective Inhibitory for DAO (Diamine Oxidase)
Test purpose: The following methods can be used to determine the selective inhibitory activity of the compounds of the invention for DAO.
human recombinant DAO (Recombinant Human ABP-1/DAO) purchased from R&D, Cat. No. 8298-AO;
The test compound was dissolved in DMSO and diluted to 6 concentrations in 5-fold serial dilution. In 384 well plates, 24 μL of human recombinant DAO (1 μg/mL) was added to each well. 1 μL Of test compounds with different concentrations were added to each well containing human recombinant DAO and incubated at 37° C. for 30 min. After 30 min incubation, 25 μL of Amplex® Red Hydrogen PeroxidePeroxidase Assay Kit (containing a reaction mixture of 100 μM Amplex® Red and 0.2 U/mL HRP) containing 1 M 1,4-Diaminobutane dihydrochloride was added to the corresponding well, and incubated at 37° C. and dark for 30 min. After 30 min, the relative fluorescence unit (RFU) was read by using PHERAstar FSX enzyme marker of BMG LABTECH at 540 nm excitation and 580 nm emission. The curve was drawn by using the graph pad prism 5 software, and the IC50 value was calculated. The results were shown in table 3, wherein the compound listed in table 3 is the compound in the preparation examples with the same compound number: […]

[4] = Pharmacokinetics in SD rats after intravenous or oral administration; format: in vivo; details: male, rat, plasma; for Vd: read-out: Vss
Protocol: 4. Pharmacokinetic Activities of the Compounds of the Invention
Test purpose: The following methods were used to evaluate the pharmacokinetics of the compound of the invention.
SD rats: male, 180-220 g, 7-8 weeks old, purchased from Hunan SJA Laboratory Animal Co., Ltd.
Test compound was prepared by dissolving in a mixture of 5% DMSO+5% KolliphorHS15+90% Saline and adjusted according to the dissolution of each compound, so that the compound can be completely dissolved.
The samples were processed by liquid-liquid extraction, separated by chromatography, quantitatively analyzed by multiple reaction ion monitoring (MRM) on triple quadrupole tandem mass spectrometer, and the results were calculated by using quantitative software.
Taking 30 μL of plasma sample precisely, adding 250 μL of internal standard, and vortex mixing uniformly. Extracting once with 1 mL MTBE, centrifugating at 13000 rpm and 4° C. for 2 min, taking 800 μL of supernatant, and evaporating it in a 96-well termovap sample concentrator, dissolving the residue with 150 μL methanol/water=50/50, vortex mixing, injecting 8 μL.
Determining the content of different compounds in the plasma of rats after the administration by using LC/MS/MS method.
Pharmacokinetic parameters were calculated using a noncompartmental method by WinNonLin 6.1 software.
The pharmacokinetic data of the compounds of the invention were listed in table 4, wherein the compound listed in table 4 is the compound in the preparation examples with the same compound number: […]

Sequence of human recombinant DAO (P19801 20-751): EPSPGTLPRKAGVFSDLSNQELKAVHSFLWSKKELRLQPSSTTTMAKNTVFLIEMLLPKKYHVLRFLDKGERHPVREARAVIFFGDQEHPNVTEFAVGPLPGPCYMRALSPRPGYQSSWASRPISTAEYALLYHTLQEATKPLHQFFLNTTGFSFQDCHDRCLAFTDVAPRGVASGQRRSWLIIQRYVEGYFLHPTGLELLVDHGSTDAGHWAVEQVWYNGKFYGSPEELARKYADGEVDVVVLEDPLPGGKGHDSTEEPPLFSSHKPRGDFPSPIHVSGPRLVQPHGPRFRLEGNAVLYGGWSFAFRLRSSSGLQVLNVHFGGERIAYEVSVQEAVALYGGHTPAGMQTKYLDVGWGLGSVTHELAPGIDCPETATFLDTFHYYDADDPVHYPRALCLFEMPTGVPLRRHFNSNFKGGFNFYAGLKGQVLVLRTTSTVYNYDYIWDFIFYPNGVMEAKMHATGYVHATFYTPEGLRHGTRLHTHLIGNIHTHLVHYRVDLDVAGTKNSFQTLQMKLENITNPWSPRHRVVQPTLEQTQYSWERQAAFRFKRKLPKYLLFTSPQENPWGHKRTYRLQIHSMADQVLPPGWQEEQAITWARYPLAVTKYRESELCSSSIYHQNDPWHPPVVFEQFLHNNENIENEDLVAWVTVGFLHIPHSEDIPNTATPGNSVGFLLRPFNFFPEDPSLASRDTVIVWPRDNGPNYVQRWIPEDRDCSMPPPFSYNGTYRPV
Sequence of rat adipose tissue homogenate SSAO/VAP-1 (O08590 whole entry): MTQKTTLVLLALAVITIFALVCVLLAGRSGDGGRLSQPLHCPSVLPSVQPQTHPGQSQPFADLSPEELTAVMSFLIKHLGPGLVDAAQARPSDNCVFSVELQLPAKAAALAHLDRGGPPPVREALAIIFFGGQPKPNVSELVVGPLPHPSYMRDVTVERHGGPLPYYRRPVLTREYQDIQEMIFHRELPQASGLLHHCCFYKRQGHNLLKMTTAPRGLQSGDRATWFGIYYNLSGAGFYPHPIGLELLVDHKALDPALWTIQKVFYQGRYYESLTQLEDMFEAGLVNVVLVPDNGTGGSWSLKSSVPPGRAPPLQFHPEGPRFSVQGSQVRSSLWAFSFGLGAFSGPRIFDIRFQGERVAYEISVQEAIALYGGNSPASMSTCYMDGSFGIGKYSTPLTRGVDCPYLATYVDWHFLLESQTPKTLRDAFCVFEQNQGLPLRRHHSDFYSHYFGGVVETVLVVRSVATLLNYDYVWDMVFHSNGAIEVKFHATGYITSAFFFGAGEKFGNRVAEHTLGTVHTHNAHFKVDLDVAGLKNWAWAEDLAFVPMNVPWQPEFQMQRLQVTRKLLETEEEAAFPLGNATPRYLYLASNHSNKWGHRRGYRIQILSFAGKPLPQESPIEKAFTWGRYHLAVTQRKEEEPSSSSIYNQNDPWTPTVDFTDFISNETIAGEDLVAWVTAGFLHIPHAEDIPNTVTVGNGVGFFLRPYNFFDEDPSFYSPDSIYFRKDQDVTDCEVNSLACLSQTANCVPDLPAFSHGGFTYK
Sequence of Human recombinant SSAO/VAP-1 (Q16853 whole entry): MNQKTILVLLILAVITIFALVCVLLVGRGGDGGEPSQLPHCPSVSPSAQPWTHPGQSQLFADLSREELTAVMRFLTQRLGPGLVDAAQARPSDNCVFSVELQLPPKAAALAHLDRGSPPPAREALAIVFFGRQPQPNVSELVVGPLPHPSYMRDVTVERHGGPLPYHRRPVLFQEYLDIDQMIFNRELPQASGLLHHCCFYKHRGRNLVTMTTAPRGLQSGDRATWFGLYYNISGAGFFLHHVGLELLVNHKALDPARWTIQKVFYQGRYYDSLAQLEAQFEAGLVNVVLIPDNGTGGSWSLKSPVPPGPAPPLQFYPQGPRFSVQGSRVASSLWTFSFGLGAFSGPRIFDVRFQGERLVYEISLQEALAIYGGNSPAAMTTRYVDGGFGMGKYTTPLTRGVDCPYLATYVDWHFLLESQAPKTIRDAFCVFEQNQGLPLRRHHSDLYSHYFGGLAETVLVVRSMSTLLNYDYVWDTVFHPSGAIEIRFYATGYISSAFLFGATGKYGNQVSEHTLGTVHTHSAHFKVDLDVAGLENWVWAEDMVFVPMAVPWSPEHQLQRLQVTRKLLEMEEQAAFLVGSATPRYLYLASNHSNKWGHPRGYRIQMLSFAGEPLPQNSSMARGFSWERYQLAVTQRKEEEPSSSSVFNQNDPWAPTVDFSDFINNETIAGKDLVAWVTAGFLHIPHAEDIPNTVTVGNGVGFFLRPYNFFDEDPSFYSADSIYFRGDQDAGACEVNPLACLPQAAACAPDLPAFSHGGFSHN

Structure (SMILES): CCOC(=O)CN1CCc2cc(OC/C(=C/F)CN)ccc2C1=O [Compound 12, ethyl 2-[6-[(E)-2-(aminomethyl)-3-fluoro-allyloxy]-1-oxo-3,4-dihydroisoquinolin-2-yl]acetate hydrochloride]
- IC50 [1]: 0.14 nM
- IC50 [2]: 10.1 nM
- IC50 [3]: > 0.1 µM
- AUC(0-inf) ([4]; iv, I.V., 1 mg/kg): 843 ng·h/mL
- AUC(0-t) ([4]; iv, I.V., 1 mg/kg): 837 ng·h/mL
- Cmax ([4]; iv, I.V., 1 mg/kg): 946 ng/mL
- Tmax ([4]; iv, I.V., 1 mg/kg): 15 min
- clearance ([4]; iv, I.V., 1 mg/kg): 330 mL/min/kg
- half-life ([4]; iv, I.V., 1 mg/kg): 56.2 min
- Vd ([4]; iv, I.V., 1 mg/kg): 1.07 L/kg
- AUC(0-inf) ([4]; po, P.O., 5 mg/kg): 2900 ng·h/mL
- AUC(0-t) ([4]; po, P.O., 5 mg/kg): 2890 ng·h/mL
- Cmax ([4]; po, P.O., 5 mg/kg): 2190 ng/mL
- Tmax ([4]; po, P.O., 5 mg/kg): 25 min
- half-life ([4]; po, P.O., 5 mg/kg): 57.5 min

Structure (SMILES): NC/C(=C\F)COc1ccc2c(c1)CCNC2=O [Compound 3, 6-[(E)-2-(aminomethyl)-3-fluoro-allyloxy]-3,4-dihydro-2H-isoquinolin-1-one hydrochloride]
- IC50 [3]: > 0.1 µM

Structure (SMILES): NC/C(=C\F)COc1ccc2c(c1)CCN(C1CCOCC1)C2=O [Compound 16, 6-[(E)-2-(aminomethyl)-3-fluoro-allyloxy]-2-(tetrahydropyran-4-yl)-3,4-dihydroisoquinolin-1-one hydrochloride]
- IC50 [1]: 0.22 nM
- IC50 [2]: 6.01 nM

Structure (SMILES): CN1CCc2cc(OC/C(=C/F)CN)ccc2C1=O [Compound 8, 6-[(E)-2-(aminomethyl)-3-fluoro-allyloxy]-2-methyl-3,4-dihydroisoquinolin-1-one hydrochloride]
- IC50 [1]: 0.32 nM
- IC50 [2]: 8.84 nM

Structure (SMILES): NC/C(=C/F)COc1ccc2c(c1)CCNS2(=O)=O [Compound 33, (E)-2-[(1,1-dioxo-3,4-dihydro-2H-benzo[e][1,2]thiazin-6-yl)oxymethyl]-3-fluoro-prop-2-enyl-1-amine hydrochloride]
- IC50 [1]: 1.98 nM
- IC50 [2]: 4.88 nM

Structure (SMILES): NC/C(=C\F)COc1ccc2c(c1)CCN(c1ccccc1)C2=O [Compound 5, 6-[(E)-2-(aminomethyl)-3-fluoro-allyloxy]-2-phenyl-3,4-dihydroisoquinolin-1-one hydrochloride]
- IC50 [1]: 0.37 nM
- IC50 [2]: 4.87 nM

Structure (SMILES): NC/C(=C\F)COc1ccc2c(c1)C(=O)NCC2 [Compound 14, 7-[(E)-2-(aminomethyl)-3-fluoro-allyloxy]-3,4-dihydro-2H-isoquinolin-1-one hydrochloride]
- IC50 [3]: > 1 µM

Structure (SMILES): NC/C(=C/F)COc1ccc2c(c1)CCN(C1CCOCC1)C2=O [Compound 17, 6-[(Z)-2-(aminomethyl)-3-fluoro-allyloxy]-2-(tetrahydropyran-4-yl)-3,4-dihydroisoquinolin-1-one hydrochloride]
- IC50 [1]: 0.58 nM
- IC50 [2]: 5.03 nM

Structure (SMILES): Cc1ccc(N2CCc3cc(OC/C(=C/F)CN)ccc3C2=O)cc1 [Compound 24, 6-[(E)-2-(aminomethyl)-3-fluoro-allyloxy]-2-(p-methylphenyl)-3,4-dihydroisoquinolin-1-one hydrochloride]
- IC50 [1]: 1.16 nM
- IC50 [3]: > 0.1 µM
- AUC(0-inf) ([4]; iv, I.V., 1 mg/kg): 450 ng·h/mL
- AUC(0-t) ([4]; iv, I.V., 1 mg/kg): 364 ng·h/mL
- Cmax ([4]; iv, I.V., 1 mg/kg): 144 ng/mL
- Tmax ([4]; iv, I.V., 1 mg/kg): 4.98 min
- clearance ([4]; iv, I.V., 1 mg/kg): 617 mL/min/kg
- half-life ([4]; iv, I.V., 1 mg/kg): 179 min
- Vd ([4]; iv, I.V., 1 mg/kg): 9.19 L/kg
- AUC(0-inf) ([4]; po, P.O., 5 mg/kg): 5320 ng·h/mL
- AUC(0-t) ([4]; po, P.O., 5 mg/kg): 5280 ng·h/mL
- Cmax ([4]; po, P.O., 5 mg/kg): 569 ng/mL
- Tmax ([4]; po, P.O., 5 mg/kg): 150 min
- half-life ([4]; po, P.O., 5 mg/kg): 207 min

Structure (SMILES): Cc1ccccc1N1CCc2cc(OC/C(=C/F)CN)ccc2C1=O [Compound 46, 6-[(E)-2-(aminomethyl)-3-fluoro-allyloxy]-2-o-methylphenyl-3,4-dihydroisoquinolin-1-one hydrochloride]
- IC50 [3]: > 0.1 µM

From patent US11396495B2, “Amine compound for inhibiting SSAO/VAP-1 and use thereof” (SUNSHINE LAKE PHARMA CO., LTD., priority 2017, dated 2022)
